Here are results for 15 compounds from US20260355318A1, “MOLECULAR MACHINES FOR TREATMENT OF CANCER, FUNGAL INFECTIONS, OR BACTERIAL INFECTIONS” (priority 2022, published 2026).

Data set [1] in a line: Estimated rotation rate after light activation. The conditions noted are these: for estimated rotation rate after light activation: based on known motors with similar core skeletons.
Data set [2] concerns C. albicans. Kind of data set: Killing of C. albicans by MM 1 in de-energized, inhibited, uncoupled cells or with scavengers. The class given is cell-based, Candida albicans. The conditions noted are these: for effect of scavenger on MM-induced killing: MM 1 2×MIC. As to the method:
FIG. 8: Survival curves of de-energized versus exponential, fully energized cells of C. albicans treated with visible-light-activated MM 1 (2×MIC). Energy depletion of C. albicans was achieved by resuspending cells in de-energization buffer (1 μM antimycin A, 5 mM 2-deoxy-D-glucose, 50 mM HEPES buffer, pH 7.0) for 3 h, as described for the determination of efflux pump activity in Example 1. Survival curves were generated according to the procedure described in Example 1 for time-kill assays. The dashed line indicates the detection limit of the method. The results are expressed as the average of at least three independent replicates±the standard error of the mean.
FIG. 9: Effect of pre-treatment with drugs targeting different individual components of the electron transport chain (see table inset) on the killing of C. albicans by light-activated MM 1 (2×MIC). Survival curves were generated according to the procedure described in Example 1 for time-kill assays. The dashed line indicates the detection limit of the method. The results are expressed as the average of at least three independent replicates±the standard error of the mean.
FIG. 10: Effect of pre-treatment with the uncoupling agents carbonyl [COMPOUND LEFT OUT] 4-(trifluoromethoxy)phenylhydrazone (FCCP) and carbonyl [COMPOUND LEFT OUT] 3-chlorophenylhydrazone (CCCP) on the killing of C. albicans by light-activated MM 1 (2×MIC). Survival curves were generated according to the procedure described in Example 1 for time-kill assays. The dashed line indicates the detection limit of the method. The results are expressed as the average of at least three independent replicates #the standard error of the mean.
Survival curves were generated according to the procedure described in Example 1 for time-kill assays. The dashed line indicates the detection limit of the method. The results are expressed as the average of at least three independent replicates±the standard error of the mean.
FIGS. 12A-12C show the effect of growth in the presence of different reactive oxygen species (ROS) scavengers and the iron scavenger 2,2′-dipyridyl (DP) on MM 1-induced killing of C. albicans. […] The results are expressed as the average of at least three independent replicates±the standard error of the mean. (FIG. 12B) Growth curves of C. albicans in the presence and absence of the iron scavenger DP, determined by monitoring the absorbance at 630 nm over time in a microplate reader. […] (FIG. 12C) Time profiles of mitochondrial ROS levels in C. albicans grown with and without DP after treatment with visible-light-activated MM 1 (2×MIC), detected with the MitoROS™ 580 fluorescent probe, according to the experimental procedure described in Example 1. […]

For data set [3], the system named is C. albicans. Kind of data set: MIC, visible-light-activated MMs and conventional antifungals, C. albicans. Format: cell-based, Candida albicans (ATCC 18804). As to conditions: Candida albicans, read-out: MIC of antifungal agent. As to the method: C. albicans cell suspensions were incubated with increasing concentrations of MMs and irradiated with 405-nm light at 292 mW cm^−2 for 5 min (87.6 J cm^−2). The minimum inhibitory concentration (MIC) was defined as the MM concentration resulting in no visible fungal growth after irradiation with 87.6 J cm^−2 of 405-nm light.
Cell suspensions for susceptibility testing (MMs and conventional antifungals) were prepared per the Clinical & Laboratory Standards Institute (CLSI) guidelines (CLSI, 2017; CLSI, 2008). Before testing, yeasts (C. albicans and S. cerevisiae) were sub-cultured in Sabouraud Dextrose Agar-Emmons Modification (SDAE) plates and grown for 24 h at 30 °C. Five independent colonies from 24-h-old plates were collected and diluted to ~10^4 colony forming units (CFU) per mL in sterile saline (CLSI, 2017). Molds (A. fumigatus and the dermatophytes T. rubrum and M. gypseum) were sub-cultured on SDAE medium and incubated for 7 days at 28 °C. Conidia were recovered by covering the plates with sterile distilled water and scraping the colonies. The suspensions were filtered (8-μm pore size) and diluted in saline to ~10^4 CFU mL^−1 (Santos and Hamdan, 2005).
After a 30-min incubation in the dark, cell suspensions were transferred to small, sterilized glass beakers, which were then placed in a water bath. Each sample was irradiated with 405-nm light at 292 mW cm^−2 for 5 min, corresponding to a light dose of 87.6 J cm^−2, determined using an S415C thermal power sensor (Thorlabs, Newton, MA, USA). During irradiation, the cell suspensions were agitated with a small metal stirrer. A thermocouple probe (model SC-TT-K-30-36-PP; Omega Engineering, Inc., Stanford, CT, USA) was used to monitor the temperature during irradiation. Irradiated cell suspensions were inoculated in 3-(N-morpholino) propanesulfonic acid (MOPS)-buffered Roswell Park Memorial Institute Medium (RPMI) 1640 (pH 7.0). Tubes were incubated at 30 ° C for 48 h (yeasts) and 28 ° C for 7 days (molds). The antifungal or MM concentration resulting in no visible growth was defined as the minimum inhibitory concentration (MIC) (CLSI, 2017; CLSI, 2008). Similarly prepared cell suspensions were used to determine the MIC of conventional antifungals.

For data set [4], the system named is E. coli. Kind of data set: MIC, E. coli. As to conditions: E. coli, broth microdilution; for MIC: Escherichia coli, read-out: Antibiotic MIC. The class given is cell-based, Escherichia coli BW25113.
In data set [5] the test system is E. coli. Nature of the data set: Checkerboard interaction with antibiotics (MIC, FIC index), E. coli. Format: cell-based, Escherichia coli. The method, then: To evaluate synergy between conventional antibiotics and MM in E. coli, the fractional inhibitory concentration (FIC) index (Hall et al., 1983) was determined using a modified checkerboard microtiter test in an 8-by-8 well configuration. Briefly, E. coli cell suspensions were prepared as described for MIC determination with an increasing concentration (0.1-40 μM) of the different MMs, followed by irradiation for 5 min at 146 mW cm^−2. […] The FIC was calculated after dividing the MIC of each antibiotic in combination with different MM by the MIC of the antibiotic alone. The FIC index, obtained by adding both FICs, was interpreted as indicating a synergistic effect if it was ≤0.5, as additive or indifferent if it was >0.5 and ≤2.0, and as antagonistic if it was >2.0 (Hall et al., 1983).

The test system of data set [6] is A. baumannii. Nature of the data set: MIC, A. baumannii. As to conditions: Acinetobacter baumannii, read-out: Antibiotic MIC. Format: cell-based, Acinetobacter baumannii. As to the method:
(§1) The appropriate volume of an MM stock at 8 mM necessary to achieve a concentration ranging from 0.3125 to 40 μM was pipetted into a 2 mL microcentrifuge tube to which 1 mL of cell suspension prepared as previously described was added. Corresponding negative controls (DMSO only) were prepared in the same way. The mixture was gently mixed by pipetting and incubated in the dark at 30 or 37 ° C, depending on the strain, for 30 min with agitation (220 rpm). Afterward, MM- or DMSO-treated cells were dispensed in one well of a 24-well plate positioned in the center of the light beam (405 nm LED Light, Prizmatix, UHP—F-5-405) placed at the appropriate distance necessary to achieve the desired light intensity of 304 mW cm-2, 146 mW cm2 or 87 mW cm2, as measured with a handheld digital power meter console coupled to an S415C thermal power sensor head (Thorlabs, Newton, MA, USA). The temperature during irradiation was monitored using a thermocouple probe (Model SC-TT-K-30-36-PP; Omega Engineering, Inc., Stanford, CT, USA). Samples were agitated during irradiation. Dark controls were prepared as previously described except that no irradiation was provided.
(§2) For MIC determination, samples treated with a range of concentrations of the different MM, as described above and were irradiated one at a time for 5 min at 146 mW cm^−2 (43.8 J cm^−2), after which irradiated aliquots were collected and inoculated into 1 mL MHB in a 2 mL microcentrifuge tube. Samples were incubated overnight at 30 or 37 ° C, depending on the strain, without agitation. Corresponding non-irradiated samples and negative controls (without bacteria) were also included. The following day, cultures were inspected for growth and the MIC was identified. The experimental procedure used to determine the MIC of visible light-activated MMs is schematically depicted in FIG. 26.

Data set [7] concerns P. aeruginosa. Nature of the data set: MIC, P. aeruginosa. Format: cell-based, Pseudomonas aeruginosa. As to the method: as §1, §2
Data set [8] relates to S. aureus. Kind of data set: MIC, S. aureus. The conditions noted are these: S. aureus, broth microdilution. Format: cell-based, Staphylococcus aureus. The method, then: as §1, §2

Values after ≈ are worked out from the molar mass of the structure shown.

As to `COc1cc2c(c3ccccc13)/C(=C1\c3ccccc3Sc3ccc(NCCN(C)C)cc31)[C@H](C)C2` (racemic) [DL-5-872], the “estimated rotation rate after light activation” value in data set [1] is recorded as 3 MHz. On to `C[C@@H]1Cc2ccc3c(NCCN(C)C)cccc3c2C1=C1c2ccccc2Sc2ccccc21` (racemic) [DL-5-901], for which the “estimated rotation rate after light activation” value in data set [1] was 3 MHz. On to `C[C@@H]1Cc2ccc3c(N(C)CCN(C)C)cccc3c2C1=C1c2ccccc2Sc2ccccc21` (racemic) [DL-5-902], for which the “estimated rotation rate after light activation” value in data set [1] is 3 MHz.

Consider `C[C@@H]1Cc2ccc3c(NCCN)cccc3c2C1=C1c2ccccc2Sc2ccccc21` (racemic) [DL-5-903], for which the “estimated rotation rate after light activation” value in data set [1] is recorded as 3 MHz. With `c1ccc(-c2ccccn2)nc1` [2,2′-dipyridyl], in data set [2], the “effect of scavenger on MM-induced ROS generation” value is listed as “did not impact MM-induced ROS generation” and the “effect of scavenger on MM-induced killing” value is recorded as “mitigation of MM-induced killing”. Consider `Nc1nc(=O)[nH]cc1F` [5-Fluorocytosine (5-FC), 5-Fluorocytosine], for which the minimum inhibitory concentration (MIC) in data set [3] amounted to 1 µg/mL. As for `C[C@@H]1CSc2ccc3ccccc3c2/C1=C1\c2ccccc2Sc2cc(NCCN(C)C)ccc21` [ARV-3-202, reference compound], the “estimated rotation rate of slow MM” value in data set [1] is ~ 10^−6 Hz.

Consider `CC1(C)S[C@@H]2[C@H](NC(=O)[C@H](N)c3ccccc3)C(=O)N2[C@H]1C(=O)O` [Ampicillin, reference compound], for which the MIC in data set [4] is 0.063 µg/mL (≈ 0.18 µM). For the compound `O=C(O)c1cn(C2CC2)c2cc(N3CCNCC3)c(F)cc2c1=O` [Ciprofloxacin, reference compound], the MIC in data set [4] was 0.008 µg/mL (≈ 0.0241 µM).

Turning to `OC(Cn1cncn1)(Cn1cncn1)c1ccc(F)cc1F` [Fluconazole (FLC), Fluconazole], in data set [3], the MIC was 0.5 µg/mL. Consider `CC1(C)CC(NC(=O)C[P+](c2ccccc2)(c2ccccc2)c2ccccc2)CC(C)(C)N1[O]` [MitoTEMPO], for which, in data set [2], the “effect of scavenger on MM-induced ROS generation” value is “reduced ROS generation” and the “effect of scavenger on MM-induced killing” value was “did not affect survival following MM treatment”. On to `CO[C@@H]1[C@@H](OC(N)=O)[C@@H](O)[C@H](Oc2ccc3c(O)c(NC(=O)c4ccc(O)c(CC=C(C)C)c4)c(=O)oc3c2C)OC1(C)C` [Novobiocin], for which the minimal inhibitory concentration (MIC) is 64 µg/mL (≈ 104 µM) in data set [4] and 0.48 µg/mL in data set [5] (Escherichia coli, 18 h, read-out: antibiotic MIC alone). Besides, in data set [5] (E. coli), the “potentiation of antibiotic by MM pre-treatment” value was “up to 64 fold”. Further, the “FIC index with MM” value in data set [5] (E. coli, MM and novobiocin) is no more than 0.5. Further, the “antibiotic MIC after pre-treatment with MM 1” value in data set [5] (E. coli, light-activated MM 1) is 0.0075 µg/mL. The “antibiotic MIC after pre-treatment with MM 5” value in data set [5] (E. coli, light-activated MM 5) was 0.0075 µg/mL. Further, the “antibiotic MIC after pre-treatment with MM 6” value in data set [5] (E. coli, light-activated MM 6) amounted to 0.015 µg/mL.

With `CN(C)[C@@H]1C(O)=C(C(N)=O)C(=O)[C@@]2(O)C(O)=C3C(=O)c4c(O)cccc4[C@@](C)(O)[C@H]3C[C@@H]12` [Tetracycline, reference compound], the minimal inhibitory concentration (MIC) in data set [6] worked out at 8 µg/mL (≈ 18 µM). As for `COc1cc(Cc2cnc(N)nc2N)cc(OC)c1OC` [Trimethoprim, reference compound], the MIC in data set [4] stood at 1 µg/mL (≈ 3.44 µM); in data set [7] (Pseudomonas aeruginosa, read-out: Antibiotic MIC), 128 µg/mL (≈ 441 µM). In the case of Gentamicin [reference compound], the “Antibiotic MIC” value in data set [4] is on record as 1 μg per mL; in data set [7] (P. aeruginosa, broth microdilution), 1 μg per mL; in data set [8], 2 μg per mL.
